The test has as its target T1, BTK (Homo sapiens, UniProt Q06187).
T1 construct: endogenous in cells; host or cells: Ramos (ATCC CRL-1596)
Briefly: Cellular BTK HTRF Assay (BTK degradation in Ramos cells). In kind it is cell-based. The settings on record: four hours incubation, 37° C., BTK levels relative to DMSO-treated cells. The method, boiled down:
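Ramos cells treated with compound 4 h at 37 °C […], then lysed 30 min. Total BTK measured by HTRF (665/620 nm ratio), donor-only background subtracted, normalized to DMSO-treated cells. DC50 from four-parameter non-linear regression.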
On the technique in general: Time-resolved FRET reads energy transfer from a long-lived donor to a nearby acceptor.

The values below come from patent publication US12582722B2, “Bifunctional compounds for degrading BTK via ubiquitin proteosome pathway” (NURIX THERAPEUTICS, INC., priority 2019, dated 2026).

SMILES strings stand for the structures.

T1 sequence (Q06187 whole entry): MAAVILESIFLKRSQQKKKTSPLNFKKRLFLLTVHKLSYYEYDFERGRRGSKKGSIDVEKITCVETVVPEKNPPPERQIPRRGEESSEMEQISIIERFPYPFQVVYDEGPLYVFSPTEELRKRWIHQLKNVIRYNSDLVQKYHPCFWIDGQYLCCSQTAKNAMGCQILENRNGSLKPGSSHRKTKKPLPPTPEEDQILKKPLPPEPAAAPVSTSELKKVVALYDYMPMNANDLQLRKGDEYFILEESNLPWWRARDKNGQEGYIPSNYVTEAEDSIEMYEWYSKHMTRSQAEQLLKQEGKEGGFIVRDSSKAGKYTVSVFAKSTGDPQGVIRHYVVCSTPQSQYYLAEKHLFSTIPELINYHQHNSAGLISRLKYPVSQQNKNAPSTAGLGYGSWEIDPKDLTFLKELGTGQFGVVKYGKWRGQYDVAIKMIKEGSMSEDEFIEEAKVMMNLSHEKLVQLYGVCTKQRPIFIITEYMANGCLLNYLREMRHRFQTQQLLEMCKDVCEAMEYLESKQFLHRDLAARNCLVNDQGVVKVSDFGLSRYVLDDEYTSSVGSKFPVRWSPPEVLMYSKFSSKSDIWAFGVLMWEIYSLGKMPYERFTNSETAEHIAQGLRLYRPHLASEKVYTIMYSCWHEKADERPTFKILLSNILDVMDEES

On to `CS(=O)(=O)c1ccc(Nc2nc(N3CCC[C@@H](NC(=O)N4CCC5(CC4)CCN(c4ccc6c(c4)C(=O)N(C4CCC(=O)NC4=O)C6=O)CC5)C3)cnc2C(N)=O)cc1` (stereo partly drawn) [Compound 11, N-[(3R)-1-{5-carbamoyl-6-[(4-methanesulfonylphenyl)amino]pyrazin-2-yl}piperidin-3-yl]-9-[2-(2,6-dioxopiperidin-3-yl)-1,3-dioxoisoindol-5-yl]-3,9-diazaspiro[5.5]undecane-3-carboxamide], for which the half-maximal degradation concentration (DC50) (in general, the concentration at which degradation of the target reaches its halfway point) was below 7.5 nM.
In the case of `Cn1cc(Nc2nc(N3CCC[C@@H](N4CCC5(CCN(CC6CCN(c7ccc8c(c7)C(=O)N(C7CCC(=O)NC7=O)C8=O)CC6)CC5)C4=O)C3)cnc2C(N)=O)cn1` (stereo partly drawn) [Compound 48, 5-[(3R)-3-[8-({1-[2-(2,6-dioxopiperidin-3-yl)-1,3-dioxoisoindol-5-yl]piperidin-4-yl}methyl)-1-oxo-2,8-diazaspiro[4.5]decan-2-yl]piperidin-1-yl]-3-[(1-methylpyrazol-4-yl)amino]pyrazine-2-carboxamide] it was below 7.5 nM.
In turn, `CS(=O)(=O)c1ccc(Nc2nc(N3CCC[C@@H](NC(=O)OCC4CCN(c5ccc6c(c5)C(=O)N(C5CCC(=O)NC5=O)C6=O)CC4)C3)cnc2C(N)=O)cc1` (stereo partly drawn) [Compound 8, (1-(2-(2,6-dioxopiperidin-3-yl)-1,3-dioxoisoindolin-5-yl)piperidin-4-yl)methyl ((R)-1-(5-carbamoyl-6-((4-(methylsulfonyl)phenyl)amino)pyrazin-2-yl)piperidin-3-yl)carbamate] came in with a half-maximal degradation concentration (DC50) of 7.5 to 50 nM.
As to `CS(=O)(=O)c1ccc(Nc2nc(N3CCC[C@@H](NC(=O)CCCCc4ccc5c(c4)C(=O)N(C4CCC(=O)NC4=O)C5)C3)cnc2C(N)=O)cc1` (stereo partly drawn) [Compound 4, 5-[(3R)-3-{5-[2-(2,6-dioxopiperidin-3-yl)-3-oxo-1H-isoindol-5-yl]pentanamido}piperidin-1-yl]-3-[(4-methanesulfonylphenyl)amino]pyrazine-2-carboxamide], the DC50 was 50 to 500 nM.
Compound `Cc1cc(Nc2nc(N3CCC[C@@H](NC(=O)C4CCN(CC5CCN(c6ccc7c(c6)C(=O)N(C6CCC(=O)NC6=O)C7=O)CC5)CC4)C3)cnc2C(N)=O)sn1` (stereo partly drawn) [Compound 22, 5-[(3R)-3-[1-({1-[2-(2,6-dioxopiperidin-3-yl)-1,3-dioxoisoindol-5-yl]piperidin-4-yl}methyl)piperidine-4-amido]piperidin-1-yl]-3-[(3-methyl-1,2-thiazol-5-yl)amino]pyrazine-2-carboxamide] came in with a 50% degradation concentration (DC50) below 7.5 nM.
